In ChEMBL document CHEMBL3400050, “The synthesis and evaluation of sesamol and benzodioxane derivatives as inhibitors of monoamine oxidase” (Bioorg Med Chem Lett, 2015):
pIC50, pKi: −log10 of the molar value.

Experiments:
[1] = molecular target: T1, Amine oxidase [flavin-containing] A (Homo sapiens, UniProt P21397); experiment: Inhibition of human recombinant MAOA using kynuramine substrate assessed as reduction in MAO-generated 4-hydroxyquinoline level by fluorescence spectrophotometry
T1 sequence (P21397 whole entry): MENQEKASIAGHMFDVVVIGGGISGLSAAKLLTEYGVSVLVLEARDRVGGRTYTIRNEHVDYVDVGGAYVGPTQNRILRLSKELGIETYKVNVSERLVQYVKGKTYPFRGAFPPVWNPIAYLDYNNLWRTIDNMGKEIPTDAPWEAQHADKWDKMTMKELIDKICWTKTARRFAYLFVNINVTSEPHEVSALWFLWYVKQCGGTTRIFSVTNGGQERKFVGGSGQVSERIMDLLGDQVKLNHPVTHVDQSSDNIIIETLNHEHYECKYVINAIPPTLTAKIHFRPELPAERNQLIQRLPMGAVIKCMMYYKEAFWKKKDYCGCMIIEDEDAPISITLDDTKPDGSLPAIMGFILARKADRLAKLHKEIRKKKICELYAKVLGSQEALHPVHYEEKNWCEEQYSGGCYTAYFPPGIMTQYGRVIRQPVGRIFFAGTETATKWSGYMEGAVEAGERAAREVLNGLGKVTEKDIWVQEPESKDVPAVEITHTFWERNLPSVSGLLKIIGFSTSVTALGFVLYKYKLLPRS

[2] = molecular target: T2, Amine oxidase [flavin-containing] B (Homo sapiens, UniProt P27338); experiment: Inhibition of human recombinant MAOB using kynuramine substrate assessed as reduction in MAO-generated 4-hydroxyquinoline level by fluorescence spectrophotometry
T2 sequence (P27338 whole entry): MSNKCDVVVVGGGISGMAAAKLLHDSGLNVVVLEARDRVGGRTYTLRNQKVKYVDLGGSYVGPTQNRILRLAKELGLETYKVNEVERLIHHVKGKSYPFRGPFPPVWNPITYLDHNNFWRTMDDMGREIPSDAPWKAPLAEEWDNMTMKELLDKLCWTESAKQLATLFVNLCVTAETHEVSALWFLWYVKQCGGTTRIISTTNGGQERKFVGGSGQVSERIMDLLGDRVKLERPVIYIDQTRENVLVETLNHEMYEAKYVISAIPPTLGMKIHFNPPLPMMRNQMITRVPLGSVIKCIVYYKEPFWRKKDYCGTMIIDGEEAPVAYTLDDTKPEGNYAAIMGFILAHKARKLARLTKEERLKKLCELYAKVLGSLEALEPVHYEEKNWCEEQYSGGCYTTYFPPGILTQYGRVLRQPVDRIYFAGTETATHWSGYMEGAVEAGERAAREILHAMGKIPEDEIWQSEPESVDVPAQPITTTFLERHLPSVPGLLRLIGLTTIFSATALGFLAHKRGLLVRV

Homo sapiens = organism: Homo sapiens; experiment: Selectivity index, ratio of IC50 for human recombinant MAOA to IC50 for human recombinant MAOB
[3] = molecular target: T1, Amine oxidase [flavin-containing] A; experiment: Inhibition of human recombinant MAOA at 100 uM using kynuramine substrate assessed as reduction in MAO-generated 4-hydroxyquinoline level by fluorescence spectrophotometry
[4] = molecular target: T2, Amine oxidase [flavin-containing] B; experiment: Reversible inhibition of human recombinant MAOB pre-incubated for 15 mins at 4 times IC50 level subsequently dialysed for 24 hrs followed by two fold dilution with kynuramine substrate assessed as enzyme catalytic activity by measuring 4-hydroxyquinoline level after 20 mins by fluorescence spectrophotometry; parameters: scale not given: the % may be the effect or the level left
[5] = molecular target: T2, Amine oxidase [flavin-containing] B; experiment: Reversible inhibition of human recombinant MAOB pre-incubated for 15 mins at 4 times IC50 level using kynuramine substrate assessed as enzyme catalytic activity by measuring 4-hydroxyquinoline level after 20 mins by fluorescence spectrophotometry; parameters: scale not given: the % may be the effect or the level left
[6] = molecular target: T2, Amine oxidase [flavin-containing] B; experiment: Competitive inhibition of human recombinant MAOB using kynuramine substrate assessed as reduction in MAO-generated 4-hydroxyquinoline level by Lineweaver-Burk plot

| SMILES | pIC50 [1] | pIC50 [2] | Ratio IC50 (Homo sapiens) | inhibition (INH) [3] | Activity [4] | Activity [5] | pKi [6] |
| --- | --- | --- | --- | --- | --- | --- | --- |
| Clc1cccc(COc2ccc3c(c2)OCCO3)c1 | 4.88 | 7.24 | 232 | – | – | – | – |
| c1ccc(CCOc2ccc3c(c2)OCCO3)cc1 | 4.56 | 7.32 | 579 | – | – | – | – |
| Brc1ccc(OCCOc2ccc3c(c2)OCO3)cc1 | – | 5.15 | > 14 | Not Active | – | – | – |
| Brc1cccc(COc2ccc3c(c2)OCO3)c1 | 4.42 | 6.79 | 234 | – | – | – | – |
| c1ccc(COc2ccc3c(c2)OCCO3)cc1 | 4.44 | 6.77 | 215 | – | – | – | – |
| c1ccc(OCCOc2ccc3c(c2)OCCO3)cc1 | 4.16 | 6.96 | 637 | – | – | – | – |
| Clc1ccc(OCCOc2ccc3c(c2)OCCO3)cc1 | – | 6.46 | > 287 | Not Active | – | – | – |
| c1ccc(CCCOc2ccc3c(c2)OCO3)cc1 | 4.11 | 5.14 | 11 | – | – | – | – |
| Brc1cccc(COc2ccc3c(c2)OCCO3)c1 | 4.77 | 7.35 | 375 | – | 87% | 21% | 7.39 |
| c1ccc(OCCOc2ccc3c(c2)OCO3)cc1 | – | 5.94 | > 88 | Not Active | – | – | – |
| c1ccc(COc2ccc3c(c2)OCO3)cc1 | – | 6.29 | > 195 | Not Active | – | – | – |
| c1ccc(CCOc2ccc3c(c2)OCO3)cc1 | 4.06 | 5.48 | 26 | – | – | – | – |
| c1ccc(CCCOc2ccc3c(c2)OCCO3)cc1 | 4.15 | 6.02 | 74 | – | – | – | – |
| Brc1ccc(OCCOc2ccc3c(c2)OCCO3)cc1 | – | 6.03 | > 106 | Not Active | – | – | – |
| Clc1ccc(OCCOc2ccc3c(c2)OCO3)cc1 | – | 5.77 | > 59 | Not Active | – | – | – |
| Clc1cccc(COc2ccc3c(c2)OCO3)c1 | 4.29 | 6.61 | 209 | – | – | – | – |
